Molecular target: T1, RecG⋅DNA(A40:B40) (Thermotoga maritima, UniProt Q9WY48)
T1 construct: made in house
T1 sequence (Q9WY48 1-780): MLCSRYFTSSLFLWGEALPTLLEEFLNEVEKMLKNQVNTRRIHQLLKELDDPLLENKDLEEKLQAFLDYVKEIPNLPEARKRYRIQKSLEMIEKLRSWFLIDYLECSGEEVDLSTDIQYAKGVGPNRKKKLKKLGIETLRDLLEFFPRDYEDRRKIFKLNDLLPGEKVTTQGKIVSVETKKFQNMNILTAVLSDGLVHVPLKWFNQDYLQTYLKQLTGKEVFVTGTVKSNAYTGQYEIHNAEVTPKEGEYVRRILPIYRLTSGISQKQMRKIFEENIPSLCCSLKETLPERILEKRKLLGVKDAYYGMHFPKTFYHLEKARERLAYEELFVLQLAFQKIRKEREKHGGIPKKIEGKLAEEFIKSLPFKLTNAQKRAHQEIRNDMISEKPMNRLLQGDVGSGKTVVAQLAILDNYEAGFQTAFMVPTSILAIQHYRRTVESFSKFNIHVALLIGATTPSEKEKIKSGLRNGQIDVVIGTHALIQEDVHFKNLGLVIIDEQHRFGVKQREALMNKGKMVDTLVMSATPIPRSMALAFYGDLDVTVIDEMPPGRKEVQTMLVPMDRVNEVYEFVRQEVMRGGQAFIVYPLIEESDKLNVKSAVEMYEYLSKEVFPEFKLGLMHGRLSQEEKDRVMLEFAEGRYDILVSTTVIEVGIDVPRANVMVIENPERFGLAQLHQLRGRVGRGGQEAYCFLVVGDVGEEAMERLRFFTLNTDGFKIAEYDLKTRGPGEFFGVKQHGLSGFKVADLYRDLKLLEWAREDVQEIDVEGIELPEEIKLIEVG
Test: Pi release with excess ATP, global fit to ATPase cycle model
Assay type: biochemical
Conditions: 0.5 µM RecG, 2.5 µM DNA (A40:B40)
Description: The rate of Pi release was measured after mixing RecG⋅DNA with excess ATP, using the phosphate biosensor, in the stopped-flow apparatus (Figure 6A). […] Both phases are dependent on ATP concentration. The lag decreased, while the rate of the linear phase increased with greater concentrations of ATP. The lag is due to the steps prior to Pi release, namely ATP binding and cleavage. […] Such a burst phase would result from the relatively fast Pi release of the initial cycle before the Pi release of subsequent cycles was limited by slow ADP release.
Figure 6 ATPase cycle measurements with unmodified nucleotides. (A) Phosphate measurements at different ATP concentrations. 0.5 µM RecG, premixed with 2.5 µM DNA (A40:B40), was then mixed in the stopped-flow apparatus with ATP at the micromolar concentrations shown, in the presence of 10 µM MDCC-PBP. (B) Best fit time courses of the Pi release, based upon a model of the ATPase cycle, as described in the text. Curves were obtained by glogal fitting the curves at different concentrations, using Global kinetic Explorer. Note that in comparison, the experimental time courses show a small transient of Pi at times <100 ms. This is likely to be due to free Pi and this behavior, overlaying a lag, has been observed previously in multi-turnover measurements. (C) ADP Release kinetics. 10 µM RecG⋅DNA (A40∶B40) was pre-bound with 10 µM ADP before mixing with an excess of mantADP (20 µM): these concentrations are final in the mixing chamber. The increase in fluorescence was fitted to single exponential giving the dissociation rate constant of 11.4 (±2.2) s^−1. Rate constants were independent of mantADP concentration in the range of 20–80 µM.
A scheme of the ATPase cycle (Figure 2) was used to simulate the data to assess the individual rate constants. […] The simulated traces (Figure 6B) were obtained from a global fit to the experimental data. This was done by allowing only the rate constants that have maximum influence on the curve shapes to vary. Cleavage and Pi release were assumed to be irreversible. For the fit, Pi release was fixed at 100 s^–1, ADP release at 12.5 s^–1, as the fitting was relatively insensitive to changes in these constants. […] The resulting best fit gave rate constants for ATP binding as 0.65 (±0.02) µM^−1s^−1, dissociation of ATP as 10.0 (±0.6) s^−1, cleavage as 7.1 (±0.1) s^−1. The fit gave a cleavage rate constant similar to the value of k cat from the steady-state analysis (Table 1a). The rate constant for ADP release may be only slightly larger than that of cleavage step.
Data were fitted to theoretical equations using the stopped-flow software or Grafit. Kinetic simulations were performed using Berkeley Madonna (Version 8.3, University of California at Berkeley) and using Global Kinetic Explorer (Kintek). […]

Nc1ncnc2c1ncn2[C@@H]1O[C@H](COP(=O)(O)OP(=O)(O)OP(=O)(O)O)[C@@H](O)[C@H]1O [ATP]
cleavage (global fit): 7.1 (±0.1) s^−1
dissociation of ATP (global fit): 10.0 (±0.6) s^−1
rate constant for ATP binding (global fit): 0.65 (±0.02) µM^−1s^−1

Source: paper PMC3368886, “ATPase Cycle and DNA Unwinding Kinetics of RecG Helicase” (PLoS ONE, 2012)
